Legend:
human orexin-1 receptor = human orexin-1 receptor (Homo sapiens (Human), UniProt O43613); assay: In vitro intracellular calcium measurements (FLIPR), antagonistic activity on orexin-1 receptor; format: cell-based; settings: CHO cells expressing human orexin-1 receptor; FLIPR; 3 nM orexin-A agonist; 120 min antagonist incubation; geometric mean if determined several times; read-out: IC50 OX1
Description: (§1) In Vitro Assay: Intracellular Calcium Measurements:
(§2) Chinese hamster ovary (CHO) cells expressing the human orexin-1 receptor and the human orexin-2 receptor, respectively, are grown in culture medium (Ham F-12 with L-Glutamine) containing 300 μg/mL G418, 100 U/mL penicillin, 100 μg/mL streptomycin and 10% heat inactivated fetal calf serum (FCS). The cells are seeded at 20′000 cells/well into 384-well black clear bottom sterile plates (Greiner). The seeded plates are incubated overnight at 37° C. in 5% CO2.
(§3) Within the Fluorescent Imaging Plate Reader (FLIPR Tetra, Molecular Devices), antagonists are added to the plate in a volume of 10 μL/well, incubated for 120 min and finally 10 μL/well of agonist is added. Fluorescence is measured for each well at 1 second intervals, and the height of each fluorescence peak is compared to the height of the fluorescence peak induced by 3 nM orexin-A with vehicle in place of antagonist. […] Optimized conditions were achieved by adjustment of pipetting speed and cell splitting regime. The calculated IC50 values may fluctuate depending on the daily cellular assay performance. Fluctuations of this kind are known to those skilled in the art.

human orexin-2 receptor = human orexin-2 receptor (Homo sapiens (Human), UniProt O43614); assay: In vitro intracellular calcium measurements (FLIPR), antagonistic activity on orexin-2 receptor; format: cell-based; settings: CHO cells expressing human orexin-2 receptor; FLIPR; 3 nM orexin-A agonist; 120 min antagonist incubation; geometric mean if determined several times; read-out: IC50 OX2
Description: as §1, §2, §3

Sequence of human orexin-1 receptor (O43613 whole entry): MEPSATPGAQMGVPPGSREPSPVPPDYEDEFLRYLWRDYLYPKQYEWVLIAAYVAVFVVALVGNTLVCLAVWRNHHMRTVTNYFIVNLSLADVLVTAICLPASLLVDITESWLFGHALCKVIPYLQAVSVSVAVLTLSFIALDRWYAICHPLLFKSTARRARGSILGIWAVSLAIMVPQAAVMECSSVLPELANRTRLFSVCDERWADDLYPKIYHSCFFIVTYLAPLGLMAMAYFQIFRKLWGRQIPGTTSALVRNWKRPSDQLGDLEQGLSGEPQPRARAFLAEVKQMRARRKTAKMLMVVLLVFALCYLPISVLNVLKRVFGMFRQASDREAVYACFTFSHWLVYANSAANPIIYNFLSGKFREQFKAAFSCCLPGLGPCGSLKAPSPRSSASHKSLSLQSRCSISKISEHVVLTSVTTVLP
Sequence of human orexin-2 receptor (O43614 whole entry): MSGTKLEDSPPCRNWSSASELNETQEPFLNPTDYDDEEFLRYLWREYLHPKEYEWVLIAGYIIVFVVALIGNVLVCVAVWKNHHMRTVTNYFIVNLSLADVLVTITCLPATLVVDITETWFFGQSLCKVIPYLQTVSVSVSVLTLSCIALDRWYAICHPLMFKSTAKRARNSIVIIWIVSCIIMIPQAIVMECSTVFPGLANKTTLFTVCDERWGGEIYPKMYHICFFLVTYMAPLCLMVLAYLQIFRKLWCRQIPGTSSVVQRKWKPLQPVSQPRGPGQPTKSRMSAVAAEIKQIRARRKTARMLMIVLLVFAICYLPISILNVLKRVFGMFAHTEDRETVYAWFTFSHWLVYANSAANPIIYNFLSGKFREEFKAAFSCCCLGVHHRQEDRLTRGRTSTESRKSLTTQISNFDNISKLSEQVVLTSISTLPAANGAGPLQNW

IC50 (human orexin-1 receptor) [nM]	IC50 (human orexin-2 receptor) [nM]	Compound
0.5	31	COc1ccc(C[C@@H]2COCCN2C(=O)c2ccccc2-n2nccn2)cc1-c1cccs1 [Example 10, [(R)-3-(4-Methoxy-3-thiophen-2-yl-benzyl)-morpholin-4-yl]-(2-[1,2,3]triazol-2-yl-phenyl)-methanone]
966	4440	O=C(c1ccccc1-n1nccn1)N1CCOC[C@@H]1Cc1cccc(-n2nccn2)c1 [Example 13, [(S)-3-(3-[1,2,3]Triazol-2-yl-benzyl)-morpholin-4-yl]-(2-[1,2,3]triazol-2-yl-phenyl)-methanone]
11	1400	Cc1ccc(-n2nccn2)c(C(=O)N2CCOC[C@H]2Cc2cccc(-c3cccnc3)c2)c1 [Example 25, (5-Methyl-2-[1,2,3]triazol-2-yl-phenyl)-[(R)-3-(3-pyridin-3-yl-benzyl)-morpholin-4-yl]-methanone]
1	131	Cc1ccc(-n2nccn2)c(C(=O)N2CCOC[C@H]2Cc2cccc(-n3cccc3)c2)c1 [Example 38, (5-Methyl-2-[1,2,3]triazol-2-yl-phenyl)-[(R)-3-(3-pyrrol-1-yl-benzyl)-morpholin-4-yl]-methanone]
34	762	Cc1ccnc(-c2cccc(C[C@@H]3COCCN3C(=O)c3ccccc3-n3nccn3)c2)n1 [Example 40, {(R)-3-[3-(4-Methyl-pyrimidin-2-yl)-benzyl]-morpholin-4-yl}-(2-[1,2,3]triazol-2-yl-phenyl)-methanone]
8	1040	Cc1ccc(-n2nccn2)c(C(=O)N2CCOC[C@H]2Cc2cccc(-c3cnccn3)c2)c1 [Example 41, (5-Methyl-2-[1,2,3]triazol-2-yl-phenyl)-[(R)-3-(3-pyrazin-2-yl-benzyl)-morpholin-4-yl]-methanone]
0.1	119	Cc1ccc(-n2nccn2)c(C(=O)N2CCOC[C@H]2Cc2cccc(-c3cccs3)c2)c1 [Example 45, (5-Methyl-2-[1,2,3]triazol-2-yl-phenyl)-[(R)-3-(3-thiophen-2-yl-benzyl)-morpholin-4-yl]-methanone]
0.5	163	O=C(c1ccccc1-n1nccn1)N1CCOC[C@H]1Cc1cccc(-c2cccs2)c1 [Example 46, [(R)-3-(3-Thiophen-2-yl-benzyl)-morpholin-4-yl]-(2-[1,2,3]triazol-2-yl-phenyl)-methanone]

Compound	IC50 (human orexin-1 receptor) [nM]	IC50 (human orexin-2 receptor) [nM]
Cc1ccc(-n2nccn2)c(C(=O)N2CCO[C@@H](C)[C@H]2Cc2cccc(-n3nccn3)c2)c1 (single isomer, unassigned) [Example 162, [(2S,3R)-2-Methyl-3-(3-[1,2,3]triazol-2-yl-benzyl)-morpholin-4-yl]-(5-methyl-2-[1,2,3]triazol-2-yl-phenyl)-methanone or [(2R,3R)-2-Methyl-3-(3-[1,2,3]triazol-2-yl-benzyl)-morpholin-4-yl]-(5-methyl-2-[1,2,3]triazol-2-yl-phenyl)-methanone]	24	2530
Cc1cccc(C(=O)N2CCO[C@@H](C)[C@H]2Cc2cccc(-n3nccn3)c2)c1-n1nccn1 (single isomer, unassigned) [Example 164, [(2S,3R)-2-Methyl-3-(3-[1,2,3]triazol-2-yl-benzyl)-morpholin-4-yl]-(3-methyl-2-[1,2,3]triazol-2-yl-phenyl)-methanone or [(2R,3R)-2-Methyl-3-(3-[1,2,3]triazol-2-yl-benzyl)-morpholin-4-yl]-(3-methyl-2-[1,2,3]triazol-2-yl-phenyl)-methanone]	29	4040
Cc1ccc(-n2nccn2)c(C(=O)N2CCO[C@H](C)[C@H]2Cc2cccc(-n3nccn3)c2)c1 (single isomer, unassigned) [Example 167, [(2R,3R)-2-Methyl-3-(3-[1,2,3]triazol-2-yl-benzyl)-morpholin-4-yl]-(5-methyl-2-[1,2,3]triazol-2-yl-phenyl)-methanone or [(2S,3R)-2-Methyl-3-(3-[1,2,3]triazol-2-yl-benzyl)-morpholin-4-yl]-(5-methyl-2-[1,2,3]triazol-2-yl-phenyl)-methanone]	19	2380

Reference: patent US9150566B2, “2-(1,2,3-triazol-2-yl)benzamide and 3-(1,2,3-triazol-2-YL)picolinamide derivatives as orexin receptor antagonists” (ACTELION PHARMACEUTICALS LTD., priority 2011, dated 2015)
